Source: patent US11485728B2, “Small molecules for the treatment of autoimmune diseases and cancer” (Athos Therapeutics, Inc., priority 2020, dated 2022)
Like-named read-outs stand apart in the source and are kept apart here.

Legend:
[1] = tested on: gut microbiome; experiment: Microbiome (shotgun metagenomic sequencing) of DSS-induced colitis mice; format: in vivo; settings: for gut microbiome composition (in words): induced colitis conditions
[2] = pH solubility; format: physicochemical; settings: for solubility at 24 h: aqueous solution, thermodynamic from solid, read-out: Solubility Concentration; for solubility higher than the solubility of compound 201: pH 7.4
Experimental: Saturated solutions of selected compounds were prepared at pH 1, 4, 6.5, and 7.4. The pH conditions selected are within the extremes of the normal physiological pH of the human gastrointestinal tract. Solubility testing of drug under different pH conditions was carried out by adding an excess amount of drug to each pH condition initiating with 1 mg/mL and then confirmed saturation by visual observation of undissolved material. The saturated solutions are continuously shaking at 6,000 rpm for 24 hours at room temperature. The saturated solutions were filtered through Millipore 0.22 um PVDF hydrophilic filters and subjected to HPLC to evaluate the solubility concentration of the test compound. Filtered saturated solutions were diluted with acetonitrile:water (50:50) within the calibration standard curve. A calibration curve of test compound contained […] standards at concentrations 0.25, 0.5, 1.0, 5.0, 10, 25, 50 and 100 μg/mL were prepared in acetonitrile:water (50:50).
Compounds were measured in filtered saturated solution using an Agilent 1260 Infinity II Lab LC Series HPLC (1260 quat pump, 1260 vial autosampler, ICC column oven, 1260 DAD WR detector). The chromatographic separation was achieved by Phenomenex Synergi Polar RP column (150×4.6 mm, 4 μm, 80 Å). The mobile phase was gradient (A: water with 0.1% trifluoroacetic acid, B: acetonitrile with 0.1% trifluoroacetic acid; A/B (99:1) from 0 minute; to A/B (1:99) from 0 to 10 minutes; A/B (1:99) from 10 to 12 minutes; to A/B (99:1) from 12 to 12.1 minutes; A/B (99:1) from 12.1 to 13 minutes) pumped at a flow rate of 1 mL/min. The detection of the eluent was monitored at 254 nm. The column oven was set at 35° C. Injection volume was 10 μL, unless otherwise specified. Data acquisition and peak integrations were obtained by OpenLAB CDS Version 2.4 (Agilent) operating with Windows (Microsoft).
Solubility is the ability of a drug to dissolve in an aqueous solution under different pH conditions. It is defined as the amount of substance that passes into solution to achieve a saturated solution at a constant temperature and pressure. The purpose of this study was to determine the solubility of selected compounds under different pH conditions and determine whether an oral solution is feasible or a suspension would be better to support the drug formulation process for pre-clinical studies. The pH conditions selected were within the extremes of the normal physiological pH of the human gastrointestinal tract, such as pH 1, pH 4, pH 6.5, and pH 7.4.

[3] = tested on: colon tissue gene expression; experiment: Colon tissue gene expression (RNA-Seq) in TNBS-induced colitis mice; format: in vivo; settings: for expression of genes related to inflammatory response: vs untreated
Experimental: Method: TNBS colitis: C57BL/6 mice (20-22 grams) were fed ad lib and assigned to 4 different groups (n=8/group). After a 72 hr acclimation period the test group groups received 25 mg/kg of test compound PO (gavage) in vehicle daily. A control group received vehicle alone. After 24 hrs, mice were weighed and TNBS was injected intra-colonically using 5 cm of polyethylene (¼ inch) tubing. Mice were then treated with the test compounds and weighed daily for 4 days. Mice were sacrificed on day 4 and clinical score was assessed. Intestinal tissue for and blood were also collected. Tissues were either flash frozen and kept in −80° C. for RNA and protein isolation or placed in 10% formalin solution for future histological analysis. Blood was spun at 5K rpm for 5 min and serum was collected and kept at −20° C. for multiplex cytokine analysis.
RNA Sequencing: RNA was extracted from mouse colon tissue at Athos Therapeutics and was sent at Zymo Research or the Technology Center for Genomics & Bioinformatics at UCLA for sequencing and partial bioinformatics analysis.
Libraries for RNA-Seq were prepared with KAPA Stranded mRNA-Seq Kit. The workflow consists of mRNA enrichment and fragmentation, first strand cDNA synthesis using random priming, followed by second strand synthesis converting cDNA:RNA hybrid to double-stranded cDNA (dscDNA), and incorporates dUTP into the second cDNA strand. cDNA generation is followed by end repair to generate blunt ends, A-tailing, adaptor ligation, and PCR amplification. Different adaptors were used for multiplexing samples in one lane. Sequencing was performed on NovaSeq6000 (SP) for a PE 2×150 run. Data quality checking was done on Illumina SAV. Data de-multiplexing was performed with Illumina Bcl2fastq v 2.19.1.403 software. The reads were mapped by STAR 2.27a and read counts per gene were quantified using the mouse Ensembl Musmusculus.GRCm38.97 GTF file. In Partek Flow (Partek® Flow® software, v7.0 Copyright©. 2019 Partek Inc., St. Louis, Mo., USA) read counts were normalized by CPM +1.0E-4.
Gene differential expression analysis and downstream gene enrichment analysis was performed at Athos Therapeutics. The DESeq2 R package was used for differential expression analysis. DESeq2 FDR cutoff: 0.05, DESeq2 Log 2FC cutoff: 1 (FC cutoff: 2). Gene enrichment analysis was performed using the Enrichr) (https://maayanlab.cloud/Enrichr/enrich) and gprofiler (https://biit.cs.ut.ee/gprofiler/gost) platforms.

[4] = tested on: J82; experiment: J82 bladder cancer cell viability (Real-Time-Glo); format: cell-based; settings: Homo sapiens, 72 hr, read-out: IC50, Cell line: J82
Experimental: To determine the plating density for cell viability assays, for each cell line, cells were counted and diluted to final densities of 2.5, 5, 10 and 20 thousand per 100 μl of their respective growth media per well in 96 well plates. A Promega Real-Time-Glo cell viability kit was used to determine the optimal concentration for cell plating so that each cell line would be within the linear part of its growth curve after 72 hrs in culture. For the determination of test compound IC50s different cancer cell lines were plated in 96 well plates in the pre-determined optimal density for each cell line. Test compounds were then added at different concentrations for the creation of six-point curve and cell density was determined using the Promega Real-Time-Glo cell viability kit after 24, 48, and 72 hrs in culture. Test compound 72 hr IC50s were calculated using the AAT Bioquest IC50 calculator.

[5] = DSS colitis mice, 25 mg/kg PO daily, p<0.05

Q: Which Bacteroidetes phylum abundance [1, 5] does the source give for COc1cc2c(NC3CCS(=O)(=O)CC3)nc(N3CCC(F)(F)CC3)nc2cc1OCCCN1CCCC1 [Compound 1, 4-((2-(4,4-difluoropiperidin-1-yl)-6-methoxy-7-(3-(pyrrolidin-1-yl)propoxy)quinazolin-4-yl)amino)tetrahydro-2H-thiopyran 1,1-dioxide] here?
A: increase

Q: What about the Firmicutes phylum abundance [1, 5] of the same molecule?
A: significant decrease

Q: And the Verrucomicrobia phylum abundance [1, 5]?
A: increase

Q: What about the “gut microbiome composition (in words)” value [1] of the same molecule?
A: significantly altered the gut microbiome composition and shifted it towards eubiosis

Q: What about the solubility at 24 h ([2]; pH 4, aqueous buffer) of the same molecule?
A: 11600 µg/mL

Q: What about the solubility at 24 h ([2]; pH 6.5, aqueous buffer) of the same molecule?
A: 6050 µg/mL

Q: What about the solubility at 24 h ([2]; pH 7.4, aqueous buffer) of the same molecule?
A: 424 µg/mL

Q: What about the “solubility higher than the solubility of compound 201” value [2] of the same molecule?
A: 40 fold

Q: For COc1cc2c(NC3CCOCC3)nc(N3CCC(F)(F)CC3)nc2cc1OCCCN1CCCC1 [Compound 2, 2-(4,4-difluoropiperidin-1-yl)-6-methoxy-7-(3-(pyrrolidin-1-yl)propoxy)-N-(tetrahydro-2H-pyran-4-yl)quinazolin-4-amine], which “expression of TNF” value [3] is on record?
A: significantly reduced expression

Q: What about the “expression of infliximab marker genes” value [3] of the same molecule?
A: significantly reduced expression

Q: And the “expression of pro-inflammatory cytokine and metalloproteinase pathway genes (22-gene signature)” value [3]?
A: significantly reduced expression

Q: What about the “number of inflammatory response genes with significantly reduced expression” value [3] of the same molecule?
A: > 85 genes

Q: And the “Log2FC 1l6” value ([3]; treated vs untreated)?
A: −4.82

Q: And the “Log2FC Ccl2” value ([3]; treated vs untreated)?
A: −2.71

Q: What about the “Log2FC Ccl3” value ([3]; treated vs untreated) of the same molecule?
A: −7.36

Q: And the “Log2FC Ccl7” value ([3]; treated vs untreated)?
A: −2.73

Q: And the “Log2FC Ccl9” value ([3]; treated vs untreated)?
A: −1.15

Q: What about the “Log2FC Csf3” value ([3]; treated vs untreated) of the same molecule?
A: −6.66

Q: And the “Log2FC Csf3r” value ([3]; treated vs untreated)?
A: −3.19

Q: What about the “Log2FC Cxcl1” value ([3]; treated vs untreated) of the same molecule?
A: −6.03

Q: What about the “Log2FC Cxcl2” value ([3]; treated vs untreated) of the same molecule?
A: −8.30

Q: And the “Log2FC Cxcl3” value ([3]; treated vs untreated)?
A: −10.19

Q: What about the “Log2FC Cxcl5” value ([3]; treated vs untreated) of the same molecule?
A: −6.57

Q: What about the “Log2FC Il1a” value ([3]; treated vs untreated) of the same molecule?
A: −6.05

Q: What about the “Log2FC Il1b” value ([3]; treated vs untreated) of the same molecule?
A: −6.17

Q: And the “Log2FC Il11” value ([3]; treated vs untreated)?
A: −4.05

Q: What about the “Log2FC Il13ra2” value ([3]; treated vs untreated) of the same molecule?
A: −2.38

Q: What about the “Log2FC Mmp3” value ([3]; treated vs untreated) of the same molecule?
A: −4.47

Q: What about the “Log2FC Osm” value ([3]; treated vs untreated) of the same molecule?
A: −4.67

Q: What about the “Log2FC Osmr” value ([3]; treated vs untreated) of the same molecule?
A: −1.24

Q: And the “Log2FC Ptgs2” value ([3]; treated vs untreated)?
A: −3.18

Q: What about the “Log2FC Stc1” value ([3]; treated vs untreated) of the same molecule?
A: −1.89

Q: What about the “Log2FC Tnfrsf11b” value ([3]; treated vs untreated) of the same molecule?
A: −1.66

Q: And the “expression of genes related to inflammatory response” value [3]?
A: significantly reduced expression levels

Q: And the Bacteroidetes phylum abundance [1, 5]?
A: increase

Q: What about the Proteobacteria phylum abundance [1, 5] of the same molecule?
A: increase

Q: And the “gut microbiome composition (in words)” value [1]?
A: significantly altered the gut microbiome composition and shifted it towards eubiosis

Q: And the solubility at 24 h ([2]; pH 6.5, aqueous buffer)?
A: 27500 µg/mL

Q: What about the solubility at 24 h ([2]; pH 7.4, aqueous buffer) of the same molecule?
A: 449 µg/mL

Q: What about the “solubility higher than the solubility of compound 201” value [2] of the same molecule?
A: 40 fold

Q: For COc1cc2c(Nc3ccncc3)nc(N3CCC(F)(F)CC3)nc2cc1OCCCN1CCCC1 [Compound 7, 2-(4,4-difluoropiperidin-1-yl)-6-methoxy-N-(pyridin-4-yl)-7-(3-(pyrrolidin-1-yl)propoxy)quinazolin-4-amine], which IC50 [4] is on record?
A: 1 to 5 µM

Q: For COc1cc2c(NC3COC3)nc(N3CCC(F)(F)CC3)nc2cc1OCCCN1CCCC1 [Compound 11, 2-(4,4-difluoropiperidin-1-yl)-6-methoxy-N-(oxetan-3-yl)-7-(3-(pyrrolidin-1-yl)propoxy)quinazolin-4-amine], which solubility at 24 h ([2]; pH 4, aqueous buffer) is on record?
A: 4450 µg/mL

Q: What about the solubility at 24 h ([2]; pH 6.5, aqueous buffer) of the same molecule?
A: 3180 µg/mL

Q: What about the solubility at 24 h ([2]; pH 7.4, aqueous buffer) of the same molecule?
A: 245 µg/mL

Q: For COc1cc2c(NC3CCN(C(C)C)CC3)nc(N3CCC(F)(F)CC3)nc2cc1OCCCN1CCCC1 [Compound 400, 2-(4,4-difluoropiperidin-1-yl)-N-(1-isopropylpiperidin-4-yl)-6-methoxy-7-(3-(pyrrolidin-1-yl)propoxy)quinazolin-4-amine, reference compound], which IC50 [4] is on record?
A: 5 to 10 µM

Q: And the “expression of genes related to inflammatory response” value [3]?
A: did not have any effect

Q: And the solubility at 24 h ([2]; pH 1, simulated gastric fluid)?
A: 22800 µg/mL

Q: What about the solubility at 24 h ([2]; pH 4, aqueous buffer) of the same molecule?
A: 13200 µg/mL

Q: And the solubility at 24 h ([2]; pH 6.5, aqueous buffer)?
A: 7510 µg/mL

Q: What about the solubility at 24 h ([2]; pH 7.4, aqueous buffer) of the same molecule?
A: 11 µg/mL
